Test results published in patent publication US10227362B2 (priority 2015, dated 2019).
Converted amounts (≈) assume the structure as drawn.

What was measured:
Kinetic solubility test = type: physicochemical; details: buffer, 22 °C, aqueous buffer, kinetic from dmso stock, pH 2.0, room temperature
Experimental: 1. […] The test compound and the control compound (10 mM DMSO mother liquor, 10 uL per well) were added to a 96-well plate containing 490 uL of buffer per well. After vortexing for 2 minutes, the plates were incubated on the shaker at room temperature (22±2° C.) for 24 hours. The 200 uL sample was then transferred to a MultiScreen filter plate (polycarbonate film), filtered through a millipore vacuum manifold, and the filtrate was collected. The concentration of the compound in the filtrate was determined by HPLC-UV. Three different concentrations of UV standard solution and solubility test samples were injected successively. Each sample was injected 2 times, and the concentration was taken into the standard curve, and the average value was calculated.

Vero Cell = test: Vero cell cytotoxicity; type: cell-based; details: Chlorocebus sabaeus, Vero cells
[1] = test system: Mycobacterium tuberculosis H37Rv strain; test: In vitro MIC against M. tuberculosis H37Rv strain (MABA, Alamar Blue); type: cell-based
Experimental: Part I: The in vitro efficacy of anti-Mycobacterium tuberculosis compounds was tested using H37Rv strain.
On the day of the test, the compound was dissolved in pure DMSO (Sigma 276855-2L) to a concentration of 10 mg/mL which was used as the mother liquor of the compound. 30 μL of DMSO was added to wells of column 2 to 11 s of the v-bottom 96-well plates (Axygen-wipp02280). 30 μL of the mother liquor of the compound was added to the well of column 2, after mixing, 30 μL was taken from the well of column 2 and added to the well of column 3, and then pipetted and mixed. The operation was taken to column 10. Column 11 was free of medicine and contained only 30 μL of DMSO. This was the “motherplate” of the compound. From column 2 to 11, the corresponding concentration of the compound was 5, 2.5, 1.25, 0.625, 0.3125, 0.156, 0.078, 0.039, 0.02, 0 mg/mL. […] A flat bottom 96-well plate (Greiner 655090) was used as a “daughterplate”. 98 μL of 7H9 (Sigma M0178) medium was added to the wells of all daughterplates. 2 μL of compound was extracted from the motherboard and added to the corresponding daughter plate. Line A and H, column 1 and 12 of the daughterplate contained only 7H9 medium.
The H37Rv strain in the glycerol cryovial was inoculated into 7H9 medium containing 0.05% Tween 80 and cultured for 4 weeks at 37° C. in a shaker with 200 rpm. The bacterial liquid was washed twice with 7H9 medium containing 0.05% Tween 80 and resuspended in the same medium. The absorbance of the bacteria liquid was adjusted to OD550=0.4-0.5 using the same medium. The bacteria liquid was sub-packed in microcentrifuge tubes and stored at −80° C. Storage time was no more than 1 month. On the day of the test, the packaged bacteria liquid would be […]. The bacteria liquid was diluted 20 times and then diluted 50 times with 7H9 medium, and a total of 1000 times dilution. The bacteria liquid would be used to inoculate on the daughterplate. 100 μL of bacterial liquid was inoculated in each well of the daughterboard, 100 μL 7H9 medium was added to column 12 and without bacteria liquid.
The test daughterplate was placed in an incubator at 37° C. and the humidity was maintained at >80%. A week later, 12.5 μL of 7H9 medium containing 20% Tween 80 and 20 μL of Alamar Blue (Invitrogen DAL1100) were added to the well of a column 1 containing bacteria and the well of a column 12 without bacteria every day, and then continue to incubate for 24 hours and observed. When the added Alamar Blue was reduced to pink in 24 hours by the bacteria liquid in the well of column 1, the 7H9 medium containing 20% Tween 80 and Alamar Blue were added to all wells on the test plate and the fluorescence values were measured after incubation for 24 hours at 37° C.

P-glycoprotein (MDR1) = test: MDR1-MDCK cell bi-directional permeability; type: in vitro ADME; details: dog; for Papp A→B at 2.5 h, 2 μM: A to B, HBSS pH 7.4, read-out: MDR1-MDCK Monolayer Cell Bi-directional Permeability Parameters A to B; for Papp B→A at 2.5 h, 2 μM: B to A, HBSS pH 7.4, read-out: MDR1-MDCK Monolayer Cell Bi-directional Permeability Parameters B to A; for efflux ratio at 2.5 h, 2 μM: HBSS pH 7.4, read-out: MDR1-MDCK Monolayer Cell Bi-directional Permeability Parameters Efflux Ratio
Description: 2. MDR1-MDCK cell bi-directional permeability evaluation experiment: MDR1-MDCK cells that permanently express human P-glycoprotein (P-glycoprotein) were planted on 96-well Insert cell plates and cultured for 4 to 7 days to form aggregated monolayer cells. The assessment of unidirectional (A→B) permeability of the fenoterol (low permeability marker) and propranolol (high permeability marker) and the bi-directional permeability of Digoxin (a P-glycoprotein substrate) were used to verify the quality of monolayer cells. The three control compounds do two complex wells.
The standard conditions for the transport experiments of the test compound were as follows: • Test concentration: 2 μM (DMSO≤1%); • Repetition: n=3; • Direction: bidirectional transport consisting of two directions: A→B and B→A; • Incubation time: single time point, 2.5 hours; • Transport buffer: HB SS, pH 7.4; • Incubation conditions: 37° C., 5% CO2, 95% relative humidity.
After the incubation, the sample solutions taken from the donor wells and the receive wells were immediately mixed with a cold acetonitrile solution containing the internal standard. And the amount of accumulation of intracellular compounds was measured by lysing the cells with a cold acetonitrile solution containing the internal standard. The concentrations of the test compound in all samples (including the initial administration solution, the supernatant of donor wells, the receiver solution, the cell lysate) were analyzed by the LC/MS/MS method. The concentration of the test compound was expressed by the ratio of its peak area to the internal standard peak area.

[2] = test system: Mycobacterium bovis BCG strain TMC1019 (ATCC35737); test: microbe, parasite or virus in culture; type: cell-based; details: Mycobacterium tuberculosis variant bovis BCG, 24 h, read-out: M. bovis ATCC35737 (ug/mL)
[3] = Pharmacokinetics in vivo in mice; details: CD-1 male mice; for Pulmonary Drug Concentration (nM/Kg) PO 1 (h): lung, 1 h after administration; for Cmax: mouse, plasma
Experimental: The pharmacokinetic characteristics of rodents after intravenous and oral administration of the compound were tested in a standard protocol. Specifically, the candidate compounds of the experiment were injected intravenously and administered orally for 7 to 10 weeks old CD-1 male mice. The oral preparation was a 0.5% suspension of methylcellulose, and the intravenous preparation was a clear solution of ethanol/DMSO/polyethylene glycol 400/pure water (10:10:50:30). Plasma and lung samples were collected and analyzed by the LC-MS/MS method and the pharmacokinetic parameters were calculated.

M. tuberculosis H37R = test: M. tuberculosis LORA MIC; type: cell-based; details: Mycobacterium tuberculosis, read-out: M. tuberculosis H37R LORA (MIC) (ug/mL)

| SMILES | solubility kinetic at 24 h (Kinetic solubility test) | IC50 (Vero Cell) | MIC [1] | Papp A→B at 2.5 h, 2 μM (P-glycoprotein (MDR1)) | Papp B→A at 2.5 h, 2 μM (P-glycoprotein (MDR1)) | efflux ratio at 2.5 h, 2 μM (P-glycoprotein (MDR1)) | MIC [2] | Pulmonary Drug Concentration (nM/Kg) PO 1 (h) [3] | Cmax ([3]; oral) | MIC (M. tuberculosis H37R) | drug concentration in lung relative to the reference compound (OPC-67683) ([3]; oral, 1 hour after administration) |
| --- | --- | --- | --- | --- | --- | --- | --- | --- | --- | --- | --- |
| C[C@]1(CN2Cc3nc(-c4ccc(F)cc4)oc3C2)Cn2cc([N+](=O)[O-])nc2O1 [Compound 89, (S)-2-(4-Fluorophenyl)-5-((2-methyl-6-nitro-2,3-dihydroimidazo[2,1-b]oxazol-2-yl)methyl)-5,6-dihydro-4H-pyrrolo[3,4-d]oxazole] | 100 µM (≈ 38.7 µg/mL) | > 32 µg/mL | < 1 µg/mL | 25.9 ×10⁻⁶ cm/s | 18.5 ×10⁻⁶ cm/s | 0.71 | < 1 µg/mL | – | – | – | – |
| C[C@]1(COc2ccc(N3CCC(Oc4ccc(OC(F)(F)F)cc4)CC3)cc2)Cn2cc([N+](=O)[O-])nc2O1 [OPC-67683, delamanid, reference compound] | – | – | – | 0.09 ×10⁻⁶ cm/s | 0.17 ×10⁻⁶ cm/s | – | – | 1677 nM/kg | 4740 nM | – | – |
| C[C@]1(CN2Cc3nc(-c4ccc(F)cc4)sc3C2)Cn2cc([N+](=O)[O-])nc2O1 [Compound 69, (S)-2-((2-(4-Fluorophenyl)-4H-pyrrolo[3,4-d]thiazol-5(6H)-yl)methyl)-2-methyl-6-nitro-2,3-dihydroimidazo[2,1-b]oxazole] | 39.3 µM (≈ 15.8 µg/mL) | > 32 µg/mL | < 1 µg/mL | 20.9 ×10⁻⁶ cm/s | 15.8 ×10⁻⁶ cm/s | 0.76 | < 1 µg/mL | – | – | 1 to 32 µg/mL (≈ 2.49 to 79.7 µM) | – |
| CC1(CN2CCc3nc(-c4ccccc4)ccc3C2)Cn2cc([N+](=O)[O-])nc2O1 (single isomer, unassigned) [Compound 1B, 2-methyl-6-nitro-2-((2-phenyl-7,8-dihydro-1,6-naphthyridin-6(5H)-yl)methyl)-2,3-dihydroimidazo[2,1-b]oxazole] | 130 µM (≈ 50.7 µg/mL) | > 32 µg/mL | < 1 µg/mL | 16.8 ×10⁻⁶ cm/s | 22.7 ×10⁻⁶ cm/s | 1.35 | < 1 µg/mL | – | – | 1 to 32 µg/mL (≈ 2.55 to 81.8 µM) | – |
| C[C@]1(CN2CCc3nc(-c4ccc(F)cc4)ccc3C2)Cn2cc([N+](=O)[O-])nc2O1 [Compound 7, (S)-2-((2-(4-Fluorophenyl)-7,8-dihydro-1,6-naphthyridin-6(5H)-yl)methyl)-2-methyl-6-nitro-2,3-dihydroimidazo[2,1-b]oxazole] | 143 µM (≈ 58.7 µg/mL) | > 32 µg/mL | < 1 µg/mL | 17.7 ×10⁻⁶ cm/s | 19.3 ×10⁻⁶ cm/s | 1.09 | < 1 µg/mL | 16147 nM/kg | 6720 nM | 1 to 32 µg/mL (≈ 2.44 to 78.2 µM) | more than 9 times |
